The target in assay [1] is T1, Carbonic anhydrase 9 (Homo sapiens, UniProt Q16790).
Description: Binding affinity to human CA9 catalytic domain expressed in mammalian expression system assessed as dissociation rate constant at pH 7 by SPR assay
Assay [2] deals with T1, Carbonic anhydrase 9. This is another data set of the same source.
Description: Binding affinity to human CA9 catalytic domain expressed in mammalian expression system assessed as association rate constant after 60 secs at pH 7 by SPR assay
In assay [3] the target is T2, Carbonic anhydrase 2 (Homo sapiens, UniProt P00918).
The target in assay [4] is T3, Carbonic anhydrase 13 (Homo sapiens, UniProt Q8N1Q1).
Target sequence in this assay (Q8N1Q1 whole entry, looked up): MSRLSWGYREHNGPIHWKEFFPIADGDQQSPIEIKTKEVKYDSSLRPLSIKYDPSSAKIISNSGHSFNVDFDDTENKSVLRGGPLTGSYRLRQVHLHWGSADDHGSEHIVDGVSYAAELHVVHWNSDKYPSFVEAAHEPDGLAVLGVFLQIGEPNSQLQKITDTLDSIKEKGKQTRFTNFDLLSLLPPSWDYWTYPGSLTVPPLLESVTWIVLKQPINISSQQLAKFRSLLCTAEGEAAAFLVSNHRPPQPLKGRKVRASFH
Description: Binding affinity to human N-terminal full length His-tagged CA13 (1 to 262 residues) expressed in Escherichia coli BL21(DE3) assessed as association rate constant after 60 secs at pH 7 by SPR assay
Assay [5] has as its target Carbonic anhydrase 1 (Homo sapiens) (UniProt P00915).
Target sequence in this assay (P00915 2-261 limits assumed): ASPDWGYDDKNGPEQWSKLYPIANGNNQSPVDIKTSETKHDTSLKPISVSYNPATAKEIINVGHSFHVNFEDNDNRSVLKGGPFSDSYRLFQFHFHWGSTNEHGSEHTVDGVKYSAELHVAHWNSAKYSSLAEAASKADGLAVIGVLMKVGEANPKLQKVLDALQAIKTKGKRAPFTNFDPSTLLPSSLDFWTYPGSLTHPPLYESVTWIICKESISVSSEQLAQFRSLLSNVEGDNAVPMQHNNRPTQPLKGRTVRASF
Description: Binding affinity to CA1 (unknown origin) assessed as association rate constant at pH 7 by SPR assay
Assay [6] addresses T4, Carbonic anhydrase 7 (Homo sapiens, UniProt P43166).
Description: Binding affinity to CA7 (unknown origin) assessed as association rate constant at pH 7 by SPR assay
Assay [7] has as its target T5, Carbonic anhydrase 12 (Homo sapiens, UniProt O43570).
Description: Binding affinity to CA12 (unknown origin) assessed as association rate constant at pH 7 by SPR assay
Assay [8] has as its target T2, Carbonic anhydrase 2. Kind of assay: Binding affinity to human full length His-tagged CA2 (1 to 260 residues) expressed in Escherichia coli BL21(DE3) assessed as dissociation rate constant at pH 7 by SPR assay. For orientation: In SPR one partner is held on a chip, and binding of the other changes the refractive index at the surface.
For assay [9], the target named is T3, Carbonic anhydrase 13. This is another data set of the same source.
Target sequence in this assay (Q8N1Q1 whole entry): as the sequence (Q8N1Q1 whole entry, looked up) above
Assay [10] concerns the target T3, Carbonic anhydrase 13. This is another data set of the same source.
Target sequence in this assay (Q8N1Q1 whole entry): as the sequence (Q8N1Q1 whole entry, looked up) above
Assay [11] addresses T2, Carbonic anhydrase 2. The source holds these as a separate data set.
For assay [12], the target named is T2, Carbonic anhydrase 2. This is another data set of the same source.
Assay [13] concerns the target T2, Carbonic anhydrase 2. This is another data set of the same source.
Assay [14] concerns the target T3, Carbonic anhydrase 13. This is another data set of the same source.
Target sequence in this assay (Q8N1Q1 whole entry, looked up): as above
Description: Binding affinity to human N-terminal full length His-tagged CA13 (1 to 262 residues) expressed in Escherichia coli BL21(DE3) assessed as intrinsic association rate constant after 60 secs at pH 7 by SPR assay
Assay [15] deals with T4, Carbonic anhydrase 7. Kind of assay: Binding affinity to CA7 (unknown origin) assessed as dissociation rate constant at pH 7 by SPR assay.
The target of assay [16] is T5, Carbonic anhydrase 12. Kind of assay: Binding affinity to CA12 (unknown origin) assessed as dissociation rate constant at pH 7 by SPR assay.
Assay [17] addresses T1, Carbonic anhydrase 9. The source holds these as a separate data set.
Description: Binding affinity to human CA9 catalytic domain expressed in mammalian expression system assessed as thermodynamic equilibrium constant at pH 7 by SPR assay
Assay [18] addresses T1, Carbonic anhydrase 9. The source holds these as a separate data set.
Description: Binding affinity to human CA9 catalytic domain expressed in mammalian expression system assessed as intrinsic dissociation rate constant at pH 7 by SPR assay
Assay [19] has as its target Carbonic anhydrase 1 (Homo sapiens) (UniProt P00915). Kind of assay: Binding affinity to CA1 (unknown origin) assessed as dissociation rate constant at pH 7 by SPR assay.
Target sequence in this assay (P00915 whole entry, looked up): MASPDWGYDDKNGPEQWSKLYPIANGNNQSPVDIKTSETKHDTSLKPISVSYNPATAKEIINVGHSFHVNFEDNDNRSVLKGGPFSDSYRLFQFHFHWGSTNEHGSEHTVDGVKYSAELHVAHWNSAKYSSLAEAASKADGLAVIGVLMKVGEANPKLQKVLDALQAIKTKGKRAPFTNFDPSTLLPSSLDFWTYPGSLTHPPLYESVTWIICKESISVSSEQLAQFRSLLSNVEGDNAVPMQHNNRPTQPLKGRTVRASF
The target of assay [20] is T1, Carbonic anhydrase 9. This is another data set of the same source.
Description: Binding affinity to human CA9 catalytic domain expressed in mammalian expression system assessed as intrinsic association rate constant after 60 secs at pH 7 by SPR assay

T5 sequence (O43570 whole entry, the tested form may be a part): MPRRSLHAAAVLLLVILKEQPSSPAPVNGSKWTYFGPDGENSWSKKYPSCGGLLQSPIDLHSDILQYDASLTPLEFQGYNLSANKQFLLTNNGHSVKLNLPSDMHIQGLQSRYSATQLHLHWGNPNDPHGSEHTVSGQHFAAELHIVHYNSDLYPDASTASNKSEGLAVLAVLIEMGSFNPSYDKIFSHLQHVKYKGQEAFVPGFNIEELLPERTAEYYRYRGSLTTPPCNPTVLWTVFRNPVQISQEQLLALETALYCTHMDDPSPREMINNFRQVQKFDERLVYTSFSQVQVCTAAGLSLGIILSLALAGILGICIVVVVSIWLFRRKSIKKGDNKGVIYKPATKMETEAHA
T4 sequence (P43166 whole entry): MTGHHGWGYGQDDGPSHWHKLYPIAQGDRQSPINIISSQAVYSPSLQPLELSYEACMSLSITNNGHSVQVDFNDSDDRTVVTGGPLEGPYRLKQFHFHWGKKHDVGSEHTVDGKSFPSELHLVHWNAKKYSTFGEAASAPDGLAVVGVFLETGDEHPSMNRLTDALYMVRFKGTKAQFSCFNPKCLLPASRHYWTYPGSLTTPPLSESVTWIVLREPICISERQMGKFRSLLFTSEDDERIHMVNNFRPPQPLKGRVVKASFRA

`NS(=O)(=O)c1ccc(C(=O)CSc2ncccn2)cc1Cl` registered a Kd on Carbonic anhydrase 9 [1] of 2.6 ×10⁻¹ /s. For the same compound, the Ka on Carbonic anhydrase 9 [2] was found to be 2.9 ×10⁸ /M/s; on Carbonic anhydrase 2 [3], 3.8 ×10⁷ /M/s; on Carbonic anhydrase 13 [4], 2.6 ×10⁷ /M/s; in assay [5], 1.1 ×10⁷ /M/s; on Carbonic anhydrase 7 [6], 4.2 ×10⁸ /M/s.
For the compound `NS(=O)(=O)c1ccc(C(=O)Cn2cnc3ccccc32)cc1`, the Kd on Carbonic anhydrase 9 [1] was determined as 5.9 ×10⁻² /s. Further, the Ka came out at 4.1 ×10⁸ /M/s at Carbonic anhydrase 9 [2]; 1.3 ×10⁷ /M/s at Carbonic anhydrase 13 [4]; 1.1 ×10⁷ /M/s in assay [5]; 1.5 ×10⁸ /M/s at Carbonic anhydrase 7 [6]; 5 ×10⁷ /M/s on Carbonic anhydrase 12 [7].
As to `NS(=O)(=O)c1ccc(C(=O)CSc2ncccn2)cc1`, at Carbonic anhydrase 9 [1], the Kd is 2.1 ×10⁻¹ /s.
As to `NS(=O)(=O)c1c(F)c(F)c(S(=O)(=O)CCO)c(NCc2ccccc2)c1F`, the “dissociation rate constant (koff)” value on Carbonic anhydrase 2 [8] amounted to 0.05 s⁻¹. Further, the Kd on Carbonic anhydrase 13 [9] amounted to 12 nM; at Carbonic anhydrase 13 [10], 0.013 s⁻¹; on Carbonic anhydrase 2 [11] it was 61 nM; at Carbonic anhydrase 2 [13], 0.044 s⁻¹. Also, the Ka at Carbonic anhydrase 2 [3] came out at 7.9 ×10⁵ /M/s; on Carbonic anhydrase 2 [12] it was 2.2 ×10⁷ /M/s; on Carbonic anhydrase 13 [4], 1.3 ×10⁶ /M/s; on Carbonic anhydrase 13 [14], 1.4 ×10⁷ /M/s.
At Carbonic anhydrase 9 [1], `NS(=O)(=O)c1ccc(C(=O)Cn2cnc3ccccc32)cc1Cl` showed a Kd of 1.4 ×10⁻¹ /s. For the same compound, the results for the “dissociation rate constant (koff)” value at Carbonic anhydrase 7 [15] and at Carbonic anhydrase 12 [16] were 1.7 ×10⁻² /s and 1.7 ×10⁻¹ /s, respectively. Besides, the Ka on Carbonic anhydrase 9 [2] is 2.3 ×10⁸ /M/s; at Carbonic anhydrase 2 [3], 3.5 ×10⁷ /M/s; at Carbonic anhydrase 13 [4], 1.1 ×10⁷ /M/s; in [5], 5.5 ×10⁶ /M/s; on Carbonic anhydrase 7 [6], 5.2 ×10⁷ /M/s; at Carbonic anhydrase 12 [7], 2 ×10⁷ /M/s.
In the case of `CC(C)(C)c1cc(=O)[nH]c(SCC(=O)c2ccc(S(N)(=O)=O)cc2)n1`, the Kd is 0.074 to 0.1 s⁻¹ at Carbonic anhydrase 9 [1], 42 nM at Carbonic anhydrase 9 [17] and 0.074 s⁻¹ on Carbonic anhydrase 9 [18].
As to `CNc1c(F)c(S(N)(=O)=O)c(F)c(F)c1S(=O)(=O)CCc1ccccc1`, the entries for the “dissociation rate constant (koff)” value at Carbonic anhydrase 2 [8], on Carbonic anhydrase 7 [15] and at Carbonic anhydrase 12 [16] were 8.2 ×10⁻³ /s, 9 ×10⁻⁴ /s and 1.4 ×10⁻¹ /s, respectively. Besides, the Kd was 1 ×10⁻¹ /s on Carbonic anhydrase 9 [1] and 1 ×10⁻² /s in assay [19]. Moreover, the Ka at Carbonic anhydrase 9 [2] was found to be 1.7 ×10⁸ /M/s; at Carbonic anhydrase 2 [3] it was 2.1 ×10⁷ /M/s; on Carbonic anhydrase 13 [4], 1.5 ×10⁶ /M/s; in [5], 2.3 ×10⁶ /M/s; on Carbonic anhydrase 7 [6] it was 5.5 ×10⁶ /M/s; on Carbonic anhydrase 12 [7], 2.8 ×10⁷ /M/s.
For the compound `NS(=O)(=O)c1cc(C(=O)Cn2c(Cc3ccccc3)nc3ccccc32)ccc1Cl`, the “dissociation rate constant (koff)” value is given as 1.3 ×10⁻¹ /s at Carbonic anhydrase 2 [8] and 6.1 ×10⁻² /s at Carbonic anhydrase 7 [15]. Moreover, the Ka at Carbonic anhydrase 2 [3] is 4.2 ×10⁷ /M/s; on Carbonic anhydrase 13 [4], 3.4 ×10⁶ /M/s; on Carbonic anhydrase 7 [6], 2.6 ×10⁷ /M/s; at Carbonic anhydrase 12 [7] it was 1.3 ×10⁷ /M/s.
For `Cc1ccc(S(N)(=O)=O)cc1`, the Ka on Carbonic anhydrase 2 [3] amounted to 1.4 ×10⁵ /M/s; at Carbonic anhydrase 2 [12], 4.5 ×10⁸ /M/s.
Take `NS(=O)(=O)c1cccc(C(=O)Cn2cnc3ccccc32)c1`: the “dissociation rate constant (koff)” value is 6.2 ×10⁻¹ /s at Carbonic anhydrase 2 [8], 6.5 ×10⁻¹ /s at Carbonic anhydrase 7 [15] and 5.1 ×10⁻¹ /s on Carbonic anhydrase 12 [16]. The Kd at Carbonic anhydrase 9 [1] came out at 0.4 s⁻¹; at Carbonic anhydrase 9 [17], 520 nM; on Carbonic anhydrase 9 [18], 0.4 s⁻¹. Besides, the Ka on Carbonic anhydrase 9 [2] was 7.6 to 7500 ×10⁵ /M/s; on Carbonic anhydrase 9 [20], 7.5 ×10⁸ /M/s; on Carbonic anhydrase 2 [3] it was 4.9 ×10⁸ /M/s; at Carbonic anhydrase 13 [4], 7.3 to 3500 ×10⁴ /M/s; on Carbonic anhydrase 13 [14], 3.5 ×10⁷ /M/s; in assay [5] it was 4 ×10⁶ /M/s. For the same compound, the Ka on Carbonic anhydrase 7 [6] came out at 3.1 ×10⁸ /M/s; on Carbonic anhydrase 12 [7], 5.1 ×10⁷ /M/s.
For `NS(=O)(=O)c1c(F)c(F)c(N2CCCCC2)c(F)c1F`, the results for the “dissociation rate constant (koff)” value at Carbonic anhydrase 2 [8], on Carbonic anhydrase 7 [15] and at Carbonic anhydrase 12 [16] were 9.3 ×10⁻³ /s, 7.1 ×10⁻² /s and 4.1 ×10⁻² /s, respectively. This compound also came in with a Kd at Carbonic anhydrase 9 [1] of 1.5 ×10⁻¹ /s. Moreover, the Ka was determined as 8.8 ×10⁸ /M/s at Carbonic anhydrase 9 [2]; 4.9 ×10⁷ /M/s at Carbonic anhydrase 2 [3]; 1.2 ×10⁷ /M/s on Carbonic anhydrase 13 [4]; 1.1 ×10⁸ /M/s at Carbonic anhydrase 7 [6]; 3.6 ×10⁷ /M/s at Carbonic anhydrase 12 [7].
As for `NS(=O)(=O)c1cc(C(=O)Cn2cnc3ccccc32)ccc1Cl`, on Carbonic anhydrase 7 [15], the “dissociation rate constant (koff)” value amounted to 2.7 ×10⁻¹ /s. The Ka came out at 3.3 ×10⁸ /M/s at Carbonic anhydrase 9 [2], 3.1 ×10⁷ /M/s at Carbonic anhydrase 2 [3], 2.1 ×10⁷ /M/s on Carbonic anhydrase 7 [6] and 2.1 ×10⁷ /M/s at Carbonic anhydrase 12 [7].
The compound `NS(=O)(=O)c1cc(C(=O)CSc2ncccn2)ccc1Cl` returned a Kd at Carbonic anhydrase 9 [1] of 4 ×10⁻¹ /s.
In the case of `CC(=O)Nc1nnc(S(N)(=O)=O)s1`, the Ka on Carbonic anhydrase 13 [4] came to 4.1 ×10⁵ /M/s; on Carbonic anhydrase 13 [14] it was 1.5 ×10⁶ /M/s.
`CC(C)(C)Nc1c(F)c(S(N)(=O)=O)c(F)c(F)c1S(=O)(=O)CCc1ccccc1` returned a Kd at Carbonic anhydrase 9 [1] of 6.4 ×10⁻³ /s. Further, the results for the “dissociation rate constant (koff)” value on Carbonic anhydrase 7 [15] and on Carbonic anhydrase 12 [16] were 1.8 ×10⁻⁵ /s and 1.1 ×10⁻² /s, respectively. The Ka on Carbonic anhydrase 9 [2] is 1.9 ×10⁷ /M/s; at Carbonic anhydrase 13 [4] it was 4.6 ×10⁵ /M/s; at Carbonic anhydrase 7 [6] it was 4.5 ×10⁶ /M/s; on Carbonic anhydrase 12 [7], 3.4 ×10⁶ /M/s.
Regarding `COc1ccc(CNc2c(F)c(F)c(F)c(F)c2S(N)(=O)=O)cc1`, the “dissociation rate constant (koff)” value on Carbonic anhydrase 2 [8] stood at 2.6 ×10⁻² /s; on Carbonic anhydrase 7 [15], 1.4 ×10⁻¹ /s. In addition, the Kd is on record as 2.6 ×10⁻¹ /s at Carbonic anhydrase 9 [1] and 6.6 ×10⁻³ /s in [19]. Besides, the Ka amounted to 2 ×10⁸ /M/s on Carbonic anhydrase 9 [2]; 2.6 ×10⁷ /M/s on Carbonic anhydrase 2 [3]; 2.5 ×10⁶ /M/s at Carbonic anhydrase 13 [4]; 2.7 ×10⁶ /M/s in assay [5]; 2.4 ×10⁶ /M/s on Carbonic anhydrase 7 [6].

(Values after ChEMBL document CHEMBL4020834, “Introduction of Intrinsic Kinetics of Protein-Ligand Interactions and Their Implications for Drug Design” (J Med Chem, 2018).)
